Literature values as cited in patent publication US7135437B2, “Stable liquid pesticide compositions” (Monsanto Technology LLC, priority 2000, dated 2006).

Settings: at 20° C.

## O=C(O)CNCP(=O)([O-])O.[K+] [glyphosate potassium salt]
  solubility in pure water, glyphosate acid equivalent: about 44 % glyphosate acid equivalent (a.e.) by weight
As salt
  solubility in pure water: about 54 % by weight
